{"source": "patent US9586936B2", "about": "“Heteroarylamine derivatives as protein kinase inhibitors” (KOREA INSTITUTE OF SCIENCE AND TECHNOLOGY, priority 2014, dated 2017)", "key": {"MAP4K5": {"molecular_target": "MAP4K5 (Homo sapiens, UniProt Q9Y4K4)", "sequence (Q9Y4K4 whole entry)": "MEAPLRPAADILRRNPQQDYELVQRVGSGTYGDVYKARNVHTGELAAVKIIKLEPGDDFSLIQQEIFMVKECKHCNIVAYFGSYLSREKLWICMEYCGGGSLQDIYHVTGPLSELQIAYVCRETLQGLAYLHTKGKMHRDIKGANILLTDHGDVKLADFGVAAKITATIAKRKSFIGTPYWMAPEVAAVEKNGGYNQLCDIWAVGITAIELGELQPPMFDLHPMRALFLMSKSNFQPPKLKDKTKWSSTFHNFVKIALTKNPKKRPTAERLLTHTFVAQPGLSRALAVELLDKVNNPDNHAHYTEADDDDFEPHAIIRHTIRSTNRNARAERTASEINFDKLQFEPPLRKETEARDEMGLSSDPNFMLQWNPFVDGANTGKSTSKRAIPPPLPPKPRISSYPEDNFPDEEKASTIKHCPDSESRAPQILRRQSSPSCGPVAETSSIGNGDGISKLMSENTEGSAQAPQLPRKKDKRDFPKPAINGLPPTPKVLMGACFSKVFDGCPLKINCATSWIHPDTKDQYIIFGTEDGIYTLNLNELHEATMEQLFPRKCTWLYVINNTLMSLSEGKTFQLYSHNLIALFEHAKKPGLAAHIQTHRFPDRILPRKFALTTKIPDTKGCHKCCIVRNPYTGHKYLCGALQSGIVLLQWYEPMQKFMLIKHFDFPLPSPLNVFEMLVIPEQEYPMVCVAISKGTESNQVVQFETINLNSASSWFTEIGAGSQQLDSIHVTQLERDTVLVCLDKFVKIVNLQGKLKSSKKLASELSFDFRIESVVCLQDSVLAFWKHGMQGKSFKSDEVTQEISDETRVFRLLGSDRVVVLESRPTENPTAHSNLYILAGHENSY", "experiment": "kinase inhibition activity, full kinase panel", "assay_type": "biochemical", "details": "1 μM of the compound; read-out: kinase activity inhibited (% inhibition)", "experimental": "(§1) In order to measure the inhibition activity (% inhibition) of the compound of the present invention against protein kinases, a biochemical assay was conducted using a full kinase panel consisting of 340 kinases. As a representative compound of the present invention, N-(2,6-dichloro-3,5-dimethoxyphenyl)-1-(6-((4-(4-ethylpiperazin-1-yl)phenyl)amino)pyrimidin-4-yl)-1H-benz[d]imidazol-2-amine synthesized in Example 1 was used.\n(§2) The kinases whose activity is inhibited by 50% or more when treated with 1 μM of the compound of Example 1 are listed in Table 1."}, "TAOK1": {"molecular_target": "TAOK1 (Homo sapiens, UniProt Q7L7X3)", "sequence (Q7L7X3 whole entry)": "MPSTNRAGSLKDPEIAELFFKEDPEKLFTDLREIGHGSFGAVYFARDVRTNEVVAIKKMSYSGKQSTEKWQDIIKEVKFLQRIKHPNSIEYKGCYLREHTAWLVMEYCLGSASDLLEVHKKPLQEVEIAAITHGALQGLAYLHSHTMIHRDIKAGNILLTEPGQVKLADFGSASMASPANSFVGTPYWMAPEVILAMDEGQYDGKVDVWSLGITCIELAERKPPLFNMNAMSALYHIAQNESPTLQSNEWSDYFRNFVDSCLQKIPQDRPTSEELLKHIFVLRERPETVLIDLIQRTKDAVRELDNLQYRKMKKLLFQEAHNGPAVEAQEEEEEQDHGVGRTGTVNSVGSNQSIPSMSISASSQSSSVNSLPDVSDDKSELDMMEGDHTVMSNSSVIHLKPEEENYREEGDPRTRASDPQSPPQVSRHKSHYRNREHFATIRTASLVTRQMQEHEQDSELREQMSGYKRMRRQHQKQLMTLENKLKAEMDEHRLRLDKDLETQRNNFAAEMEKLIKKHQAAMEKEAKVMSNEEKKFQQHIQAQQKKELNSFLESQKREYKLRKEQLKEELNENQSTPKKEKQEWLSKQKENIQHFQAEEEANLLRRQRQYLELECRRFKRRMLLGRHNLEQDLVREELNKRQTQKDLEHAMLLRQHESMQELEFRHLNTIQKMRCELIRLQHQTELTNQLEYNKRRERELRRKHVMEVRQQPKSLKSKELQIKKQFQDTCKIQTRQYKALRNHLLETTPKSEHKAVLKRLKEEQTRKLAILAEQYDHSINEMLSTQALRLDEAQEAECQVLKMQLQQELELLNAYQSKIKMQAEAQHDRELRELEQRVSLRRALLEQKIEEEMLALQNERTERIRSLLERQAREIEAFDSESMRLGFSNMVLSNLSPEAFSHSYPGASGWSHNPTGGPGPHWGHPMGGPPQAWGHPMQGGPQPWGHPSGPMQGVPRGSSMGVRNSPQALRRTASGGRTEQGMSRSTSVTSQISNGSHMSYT", "experiment": "kinase inhibition activity, full kinase panel", "assay_type": "biochemical", "details": "1 μM of the compound; read-out: kinase activity inhibited (% inhibition)", "experimental": "as §1, §2"}, "LIMK1": {"molecular_target": "LIMK1 (Homo sapiens, UniProt P53667)", "sequence (P53667 whole entry)": "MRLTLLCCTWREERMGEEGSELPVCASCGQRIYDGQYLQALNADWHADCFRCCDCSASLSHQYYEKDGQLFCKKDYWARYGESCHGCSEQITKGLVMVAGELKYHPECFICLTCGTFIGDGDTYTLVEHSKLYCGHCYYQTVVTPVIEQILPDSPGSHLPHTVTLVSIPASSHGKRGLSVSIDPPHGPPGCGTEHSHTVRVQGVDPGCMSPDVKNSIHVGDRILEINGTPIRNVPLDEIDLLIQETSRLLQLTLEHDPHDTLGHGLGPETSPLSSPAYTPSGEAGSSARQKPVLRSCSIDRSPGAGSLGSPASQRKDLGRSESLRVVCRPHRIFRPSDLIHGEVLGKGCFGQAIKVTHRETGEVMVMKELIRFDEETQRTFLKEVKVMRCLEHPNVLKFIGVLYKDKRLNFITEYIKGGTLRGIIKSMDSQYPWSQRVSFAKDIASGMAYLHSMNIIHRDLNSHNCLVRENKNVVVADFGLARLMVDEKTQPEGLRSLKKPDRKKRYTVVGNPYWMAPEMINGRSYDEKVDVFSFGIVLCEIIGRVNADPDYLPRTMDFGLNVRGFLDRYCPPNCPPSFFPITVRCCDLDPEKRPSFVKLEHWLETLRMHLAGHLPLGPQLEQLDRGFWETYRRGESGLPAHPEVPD", "experiment": "kinase inhibition activity, full kinase panel", "assay_type": "biochemical", "details": "1 μM of the compound; read-out: kinase activity inhibited (% inhibition)", "experimental": "as §1, §2"}, "[1]": {"experiment": "in-vivo PK profile, mouse PK", "details": "ICR mice", "text": "The in-vivo PK profile (mouse PK/ICR mice and rat PK/Sprague-Dawley rat) of N-(2,6-dichloro-3,5-dimethoxyphenyl)-1-(6-((4-(4-ethylpiperazin-1-yl)phenyl)amino)pyrimidin-4-yl)-1H-benz[d]imidazol-2-amine synthesized in Example 1 is as follows."}, "CYP1A2": {"molecular_target": "T1, CYP1A2 (Homo sapiens, UniProt P05177)", "T1 sequence (P05177 1-516)": "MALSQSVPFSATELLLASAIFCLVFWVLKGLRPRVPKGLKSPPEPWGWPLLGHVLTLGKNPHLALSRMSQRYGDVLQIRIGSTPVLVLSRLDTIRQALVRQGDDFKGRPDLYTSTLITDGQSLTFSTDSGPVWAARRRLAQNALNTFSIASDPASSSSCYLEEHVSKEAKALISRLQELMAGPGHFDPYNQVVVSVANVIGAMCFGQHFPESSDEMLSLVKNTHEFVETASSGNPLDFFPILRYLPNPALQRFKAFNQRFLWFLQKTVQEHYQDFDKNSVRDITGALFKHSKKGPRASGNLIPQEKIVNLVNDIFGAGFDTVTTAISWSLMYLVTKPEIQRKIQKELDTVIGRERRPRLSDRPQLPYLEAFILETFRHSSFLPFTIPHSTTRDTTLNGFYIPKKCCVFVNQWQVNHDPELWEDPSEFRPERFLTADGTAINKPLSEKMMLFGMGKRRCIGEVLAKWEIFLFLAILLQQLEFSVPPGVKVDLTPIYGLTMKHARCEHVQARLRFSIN", "experiment": "inhibition activity against CYPs (cytochromes P450)", "assay_type": "in vitro ADME", "experimental": "(§3) The inhibition activity (inhibition rate, %) of N-(2,6-dichloro-3,5-dimethoxyphenyl)-1-(6-((4-(4-ethylpiperazin-1-yl)phenyl)amino)pyrimidin-4-yl)-1H-benz[d]imidazol-2-amine synthesized in Example 1, as a representative compound of the present invention, against CYPs (cytochromes P450) was measured in order to investigate the risk of drug side effects."}, "CYP2D6": {"molecular_target": "CYP2D6 (Homo sapiens, UniProt P10635)", "sequence (P10635 whole entry)": "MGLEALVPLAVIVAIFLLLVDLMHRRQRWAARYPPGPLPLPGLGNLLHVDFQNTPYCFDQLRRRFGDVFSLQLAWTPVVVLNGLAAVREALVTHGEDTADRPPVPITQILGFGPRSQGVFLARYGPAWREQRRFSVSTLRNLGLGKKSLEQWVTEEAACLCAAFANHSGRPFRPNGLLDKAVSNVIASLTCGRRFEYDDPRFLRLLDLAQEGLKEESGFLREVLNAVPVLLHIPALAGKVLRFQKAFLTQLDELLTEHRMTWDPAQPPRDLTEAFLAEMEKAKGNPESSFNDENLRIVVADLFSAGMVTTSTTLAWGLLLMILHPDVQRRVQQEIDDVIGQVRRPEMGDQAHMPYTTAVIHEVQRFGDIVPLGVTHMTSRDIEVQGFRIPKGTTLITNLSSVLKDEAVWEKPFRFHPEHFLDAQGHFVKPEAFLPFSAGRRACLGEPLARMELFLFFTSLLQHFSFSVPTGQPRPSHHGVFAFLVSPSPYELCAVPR", "experiment": "inhibition activity against CYPs (cytochromes P450)", "assay_type": "in vitro ADME", "experimental": "as §3"}, "CYP2C19": {"molecular_target": "CYP2C19 (Homo sapiens, UniProt P33261)", "sequence (P33261 whole entry)": "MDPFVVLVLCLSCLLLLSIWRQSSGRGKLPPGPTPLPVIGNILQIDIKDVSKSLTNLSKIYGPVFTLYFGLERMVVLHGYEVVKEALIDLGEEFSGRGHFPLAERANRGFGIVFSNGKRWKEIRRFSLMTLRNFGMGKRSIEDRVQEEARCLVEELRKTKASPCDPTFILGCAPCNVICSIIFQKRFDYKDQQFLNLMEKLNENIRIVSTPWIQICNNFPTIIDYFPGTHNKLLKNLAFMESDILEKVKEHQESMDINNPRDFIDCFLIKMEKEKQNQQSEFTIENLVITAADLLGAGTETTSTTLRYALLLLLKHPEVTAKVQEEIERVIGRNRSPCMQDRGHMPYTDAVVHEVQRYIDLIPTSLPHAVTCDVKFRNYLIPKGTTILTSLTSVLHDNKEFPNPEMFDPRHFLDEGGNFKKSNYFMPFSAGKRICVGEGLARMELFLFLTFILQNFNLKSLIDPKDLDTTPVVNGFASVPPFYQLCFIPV", "experiment": "inhibition activity against CYPs (cytochromes P450)", "assay_type": "in vitro ADME", "experimental": "as §3"}, "CYP2C9": {"molecular_target": "CYP2C9 (Homo sapiens, UniProt P11712)", "sequence (P11712 whole entry)": "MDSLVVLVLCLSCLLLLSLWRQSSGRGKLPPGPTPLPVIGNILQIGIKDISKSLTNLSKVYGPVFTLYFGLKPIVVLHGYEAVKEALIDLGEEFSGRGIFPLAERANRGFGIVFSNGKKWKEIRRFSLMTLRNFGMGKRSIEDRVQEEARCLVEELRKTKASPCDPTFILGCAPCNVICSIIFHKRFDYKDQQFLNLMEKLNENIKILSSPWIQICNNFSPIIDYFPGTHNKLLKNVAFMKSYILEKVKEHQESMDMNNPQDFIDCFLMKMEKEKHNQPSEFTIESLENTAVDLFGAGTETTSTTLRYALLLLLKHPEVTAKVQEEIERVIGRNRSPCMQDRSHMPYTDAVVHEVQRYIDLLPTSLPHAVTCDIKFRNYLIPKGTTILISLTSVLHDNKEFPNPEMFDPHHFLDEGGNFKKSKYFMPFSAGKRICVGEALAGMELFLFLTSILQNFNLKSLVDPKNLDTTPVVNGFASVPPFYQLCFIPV", "experiment": "inhibition activity against CYPs (cytochromes P450)", "assay_type": "in vitro ADME", "experimental": "as §3"}, "CYP3A4": {"molecular_target": "CYP3A4 (Homo sapiens, UniProt P08684)", "sequence (P08684 whole entry)": "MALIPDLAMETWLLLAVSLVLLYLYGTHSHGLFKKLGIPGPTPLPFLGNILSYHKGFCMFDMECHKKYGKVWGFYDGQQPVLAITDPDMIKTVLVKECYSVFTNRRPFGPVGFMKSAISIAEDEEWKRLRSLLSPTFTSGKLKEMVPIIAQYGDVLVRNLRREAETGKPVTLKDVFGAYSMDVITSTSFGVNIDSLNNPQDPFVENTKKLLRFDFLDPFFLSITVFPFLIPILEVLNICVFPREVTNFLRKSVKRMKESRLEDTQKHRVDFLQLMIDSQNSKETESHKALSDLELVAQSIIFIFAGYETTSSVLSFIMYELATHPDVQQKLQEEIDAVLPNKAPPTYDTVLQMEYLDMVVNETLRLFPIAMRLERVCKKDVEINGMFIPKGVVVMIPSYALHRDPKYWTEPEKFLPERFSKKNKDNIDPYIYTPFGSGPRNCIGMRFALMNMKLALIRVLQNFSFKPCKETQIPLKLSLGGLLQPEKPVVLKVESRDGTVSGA", "experiment": "inhibition activity against CYPs (cytochromes P450)", "assay_type": "in vitro ADME", "experimental": "as §3"}, "[2]": {"test_system": "bladder cancer cell line RT112", "experiment": "inhibition of proliferation of cancer cells", "assay_type": "cell-based", "details": "Homo sapiens, RT-112, read-out: Ability of inhibiting proliferation of RT112 (GI50)", "experimental": "The ability of the compound of the present invention of inhibiting the proliferation of the bladder cancer cell line RT112 was determined as the GI50 value."}, "microsomal stability": {"experiment": "microsomal stability", "assay_type": "in vitro ADME, Dog", "details": "for microsomal stability (% at time): Dog", "experimental": "The microsomal stability of N-(2,6-dichloro-3,5-dimethoxyphenyl)-1-(6-((4-(4-ethylpiperazin-1-yl)phenyl)amino)pyrimidin-4-yl)-1H-benz[d]imidazol-2-amine synthesized in Example 1, as a representative compound of the present invention, was evaluated."}, "[3]": {"details": "from 0.1-50 μM, unit from the table's concentration head, read-out: Expected IC50"}}, "data": [{"smiles": "CCN1CCN(c2ccc(Nc3cc(-n4c(Nc5c(Cl)c(OC)cc(OC)c5Cl)nc5ccccc54)ncn3)cc2)CC1", "note": "[Example 1, N-(2,6-dichloro-3,5-dimethoxyphenyl)-1-(6-((4-(4-ethylpiperazin-1-yl)phenyl)amino)pyrimidin-4-yl)-1H-benz[d]imidazol-2-amine]", "values": [{"measurement": "inhibition at 1 µM", "setting": "MAP4K5", "value": "≥ 50", "unit": "%"}, {"measurement": "inhibition at 1 µM", "setting": "TAOK1", "value": "≥ 50", "unit": "%"}, {"measurement": "inhibition at 1 µM", "setting": "LIMK1", "value": "≥ 50", "unit": "%"}, {"measurement": "F*", "setting": "[1]; PO 10 mg/kg", "value": 23.44, "unit": "%"}, {"measurement": "AUC(0-inf)", "setting": "[1]; mouse, in vivo, IV 5 mg/kg", "value": 350, "unit": "ng·h/mL"}, {"measurement": "AUC(0-t)", "setting": "[1]; mouse, in vivo, IV 5 mg/kg", "value": 322, "unit": "ng·h/mL"}, {"measurement": "Cmax", "setting": "[1]; mouse, in vivo, IV 5 mg/kg", "value": 111, "unit": "ng/mL"}, {"measurement": "Tmax", "setting": "[1]; mouse, in vivo, IV 5 mg/kg", "value": 0.083, "unit": "h"}, {"measurement": "clearance", "setting": "[1]; mouse, in vivo, IV 5 mg/kg", "value": 238, "unit": "mL/min/kg"}, {"measurement": "half-life", "setting": "[1]; mouse, in vivo, IV 5 mg/kg", "value": 1.83, "unit": "h"}, {"measurement": "MRT inf", "setting": "[1]; mouse, in vivo, IV 5 mg/kg, read-out: MRT(0-∞)", "value": 3.56, "unit": "h"}, {"measurement": "Vd", "setting": "[1]; mouse, in vivo, IV 5 mg/kg, read-out: Vz", "value": 37.7, "unit": "L/kg"}, {"measurement": "AUC(0-t)", "setting": "[1]; mouse, in vivo, PO 10 mg/kg", "value": 151, "unit": "ng·h/mL"}, {"measurement": "Cmax", "setting": "[1]; mouse, in vivo, PO 10 mg/kg", "value": 27.1, "unit": "ng/mL"}, {"measurement": "Tmax", "setting": "[1]; mouse, in vivo, PO 10 mg/kg", "value": 6, "unit": "h"}, {"measurement": "IC50", "setting": "CYP1A2; [3]", "value": "> 50", "unit": "µM"}, {"measurement": "inhibition at 0.1 µM", "setting": "CYP1A2; human, concentration 0.1 μM", "value": 5.36, "unit": "%"}, {"measurement": "inhibition at 0.5 µM", "setting": "CYP1A2; human, concentration 0.5 μM", "value": 4.67, "unit": "%"}, {"measurement": "inhibition at 5 µM", "setting": "CYP1A2; human, concentration 5 μM", "value": -1.9, "unit": "%"}, {"measurement": "inhibition at 10 µM", "setting": "CYP1A2; human, concentration 10 μM", "value": -3.46, "unit": "%"}, {"measurement": "inhibition at 25 µM", "setting": "CYP1A2; human, concentration 25 μM", "value": -3.11, "unit": "%"}, {"measurement": "inhibition at 50 µM", "setting": "CYP1A2; human, concentration 50 μM", "value": 2.08, "unit": "%"}, {"measurement": "inhibition activity against CYP, statement in words", "setting": "CYP1A2; summary of Table 5", "value": "no inhibition activity"}, {"measurement": "inhibition at 10 µM", "setting": "CYP2D6; concentration 10 μM", "value": 6.12, "unit": "%"}, {"measurement": "IC50", "setting": "CYP2D6; [3]", "value": "> 50", "unit": "µM"}, {"measurement": "inhibition at 0.1 µM", "setting": "CYP2D6; human, concentration 0.1 μM", "value": -3.15, "unit": "%"}, {"measurement": "inhibition at 0.5 µM", "setting": "CYP2D6; human, concentration 0.5 μM", "value": -4.76, "unit": "%"}, {"measurement": "inhibition at 5 µM", "setting": "CYP2D6; human, concentration 5 μM", "value": -2.56, "unit": "%"}, {"measurement": "inhibition at 25 µM", "setting": "CYP2D6; human, concentration 25 μM", "value": 13.6, "unit": "%"}, {"measurement": "inhibition at 50 µM", "setting": "CYP2D6; human, concentration 50 μM", "value": 13.4, "unit": "%"}, {"measurement": "inhibition activity against CYP, statement in words", "setting": "CYP2D6; summary of Table 5", "value": "no inhibition activity"}, {"measurement": "inhibition at 10 µM", "setting": "CYP2C19; concentration 10 μM", "value": 37.3, "unit": "%"}, {"measurement": "IC50", "setting": "CYP2C19; [3]", "value": 16.6, "unit": "µM"}, {"measurement": "inhibition at 0.1 µM", "setting": "CYP2C19; human, concentration 0.1 μM", "value": 2.72, "unit": "%"}, {"measurement": "inhibition at 0.5 µM", "setting": "CYP2C19; human, concentration 0.5 μM", "value": 3.23, "unit": "%"}, {"measurement": "inhibition at 5 µM", "setting": "CYP2C19; human, concentration 5 μM", "value": 30, "unit": "%"}, {"measurement": "inhibition at 25 µM", "setting": "CYP2C19; human, concentration 25 μM", "value": 66.1, "unit": "%"}, {"measurement": "inhibition at 50 µM", "setting": "CYP2C19; human, concentration 50 μM", "value": 68, "unit": "%"}, {"measurement": "inhibition activity against CYP, statement in words", "setting": "CYP2C19; summary of Table 5", "value": "no inhibition activity"}, {"measurement": "IC50", "setting": "CYP2C9; [3]", "value": 44.8, "unit": "µM"}, {"measurement": "inhibition at 0.1 µM", "setting": "CYP2C9; human, concentration 0.1 μM", "value": 10.3, "unit": "%"}, {"measurement": "inhibition at 0.5 µM", "setting": "CYP2C9; human, concentration 0.5 μM", "value": 8.79, "unit": "%"}, {"measurement": "inhibition at 5 µM", "setting": "CYP2C9; human, concentration 5 μM", "value": 24.6, "unit": "%"}, {"measurement": "inhibition at 10 µM", "setting": "CYP2C9; human, concentration 10 μM", "value": 30, "unit": "%"}, {"measurement": "inhibition at 25 µM", "setting": "CYP2C9; human, concentration 25 μM", "value": 52.4, "unit": "%"}, {"measurement": "inhibition at 50 µM", "setting": "CYP2C9; human, concentration 50 μM", "value": 53.4, "unit": "%"}, {"measurement": "inhibition activity against CYP, statement in words", "setting": "CYP2C9; summary of Table 5", "value": "no inhibition activity"}, {"measurement": "inhibition at 10 µM", "setting": "CYP3A4; concentration 10 μM", "value": 31.8, "unit": "%"}, {"measurement": "IC50", "setting": "CYP3A4; [3]", "value": 32.4, "unit": "µM"}, {"measurement": "inhibition at 0.1 µM", "setting": "CYP3A4; human, concentration 0.1 μM", "value": 3.09, "unit": "%"}, {"measurement": "inhibition at 0.5 µM", "setting": "CYP3A4; human, concentration 0.5 μM", "value": 3.7, "unit": "%"}, {"measurement": "inhibition at 5 µM", "setting": "CYP3A4; human, concentration 5 μM", "value": 24.4, "unit": "%"}, {"measurement": "inhibition at 25 µM", "setting": "CYP3A4; human, concentration 25 μM", "value": 49.7, "unit": "%"}, {"measurement": "inhibition at 50 µM", "setting": "CYP3A4; human, concentration 50 μM", "value": 55.5, "unit": "%"}, {"measurement": "inhibition activity against CYP, statement in words", "setting": "CYP3A4; summary of Table 5", "value": "no inhibition activity"}, {"measurement": "GI50", "setting": "[2]", "value": "< 1", "unit": "µM"}, {"measurement": "microsomal stability (% at time)", "setting": "microsomal stability; 0 min", "value": 100.00, "unit": "%"}, {"measurement": "microsomal stability (% at time)", "setting": "microsomal stability; 5 min", "value": 77.02, "unit": "%"}, {"measurement": "microsomal stability (% at time)", "setting": "microsomal stability; 10 min", "value": 57.41, "unit": "%"}, {"measurement": "microsomal stability (% at time)", "setting": "microsomal stability; 15 min", "value": 44.70, "unit": "%"}, {"measurement": "microsomal stability (% at time)", "setting": "microsomal stability; 30 min", "value": 21.03, "unit": "%"}, {"measurement": "microsomal stability (% at time)", "setting": "microsomal stability; 45 min", "value": 8.23, "unit": "%"}, {"measurement": "microsomal stability (% at time)", "setting": "microsomal stability; 60 min", "value": 5.02, "unit": "%"}, {"measurement": "half-life", "setting": "microsomal stability; microsomes, Dog microsomal stability", "value": 0.225, "unit": "h"}]}]}
